Data taken from patent US7662851B2, “Use of specific cyklolignans” (Axelar AB, priority 2001, dated 2010).

Assays:
[1] = system: BE (melanoma cells) xenografts; test: Tumor growth of BE xenografts in nude mice; format: in vivo; conditions: 28 mg/kg i.p. daily 4-6 days, then 4-6 days without treatment, FIG. 6
Description: Control mice were treated with the solvent. 3-6 animals were treated in each group.
Because of the toxicity of podophyllotoxin and deoxypodophyllotoxin, we only used picropodophyllin to analyze effects on tumor xenografts. For this purpose ES-1 (Ewing's sarcoma cells) and BE (melanoma cells) xenografts were established in nude mice. When the ES-1 and BE tumors started growing subcutaneously and were measurable, mice were treated daily with intraperitoneal injections of picropodophyllin (28 mg/kg, which was required for giving an average concentration above 0.05 μM of picropodophyllin in the blood plasma) or 80% DMSO in saline as a carrier for 4-6 days, followed by 4-6 days without treatment. The mice were then killed and the tumors analyzed by an experienced pathologist.

[2] = system: HL60/Nov acute myeloid leukemia cells; test: Leukemia cell viability, HL60/Nov; format: cell-based, human; conditions: Homo sapiens, HL-60, 72 h, read-out: IC50 for cell viability
Description: (§1) The human chronic myeloid leukemia K562/S and K562/Vcr30 lines and the acute myeloid leukemia cell lines HL60/0 and HL60/Nov were obtained from ATCC. The K562/S and […] are wild type (non-resistant) cells, whereas K562/Vcr30 and HL60/Nov are cytostatic-resistant sublines. All leukemia cell lines were cultured in RPMI 1640 medium supplemented with 10% fetal bovine serum and with 2 mM L-glutamine, benzylpenicillin (100 U/ml) and streptomycin (100 μg/ml). The cells were grown in tissue culture flasks maintained at 95% air/5% CO2 atmosphere at 37° C. in a humidified incubator. For the experiments cells were cultured in 60-mm plastic dishes or 96-well plastic plates.
(§2) Cell proliferation kit II (Roche Inc.) is based on colorimetric change of the yellow tetrazolium salt XTT in orange formazan dye by the respiratory chain of viable cells (Roehm, N W, et al., J Immunol Methods 142:257-265, 1991). Cells seeded at a concentration of 5000/well in 100 μl medium in a 96-well plate were treated with different drugs in the given concentration. After 24 or 48 h the cells were incubated, according to the manufacturer's protocol, with XTT labelling mixture. After 4 h the formazan dye is quantified using a scanning multiwell spectrophotometer with a 495-nm filter. The absorbance is directly correlated with the number of viable cells. The standard absorbance curve was drawn by means of untreated cells seeded at a concentration of from 1000 to 10 000 cells/well with an increasing rate of 1000 cells/well. All standards and experiments were performed in triplicates.
Cells of said cell lines were seeded in 96-well plates (25 000 cells/well, medium volume per well was 100 μl), in […] medium supplemented with fetal calf serum. After 24 h picropodophyllin and the derivatives alpha-apopicropodophyllin and beta-apopicropodo-phyllin were added at different concentrations and the cells were incubated for 72 h. Cell viability was then assayed (see above). […] The results are based on 3 different experiments.
The leukemia cell lines K562/S, […], HL60/0 and HL60/Nov were cultured in 96-well plates as described in Experiment 7. After 24 h, the cells were treated for 72 h with different concentrations of the anti-cancer agent vincristine, with and without co-incubation with 0.05 μM picropodophyllin. […] Cell viability was then assayed. IC50 values for each inhibitor and cell line are shown below (Table 8). The results are based on 3 different experiments.

[3] = system: leukemia cell lines (K562/S, K562/Vcr30, HL60/0 and HL60/Nov); test: Leukemia cell viability, summary over the four cell lines; format: cell-based, human; conditions: 72 h
Description: as §1
as §2, with “After 24 or 48 h the cells were incubated, according to the manufacturer's protocol, with XTT labelling mixture.” left out, “All standards and experiments were performed in triplicates.” left out

[4] = system: microtubule polymerisation; conditions: cited from earlier work
[5] = system: BE malignant melanoma cell line; test: Cell viability (XTT), BE; format: cell-based; conditions: 48 h
Description: as §2
12 different types of cell lines were seeded in 96-well plates (medium volume in a well was 100 μl), at a concentration of 10,000 cells/cm^2 in Minimal Essential Medium supplemented with fetal calf serum. When the cells had reached a concentration of 65,000 cells/cm^2, they were treated with different doses of podophyllotoxin and picropodophyllin for 48 h. Cell viability was then assayed (see above). […]

| Compound | Effect on tumor growth [1] | IC50 [2] | IC50 ([3]; Homo sapiens, read-out: Concentration needed to cause 50% cell death) | Cell death in the tumor cells ([3]; leukemia cell lines, 0.05 μM) | Fold lower inhibitory effect on microtubule polymerisation than podophyllotoxin [4] | EC50 [5] |
| --- | --- | --- | --- | --- | --- | --- |
| COc1cc([C@@H]2c3cc4c(cc3[C@H](O)[C@H]3COC(=O)[C@@H]23)OCO4)cc(OC)c1OC [Picropodophyllin, picropodophyllin] | significantly inhibited growth | 0.11 µM | 0.11 to 0.32 µM | did not cause any detectable cell death | 50 fold | – |
| COc1cc([C@@H]2c3cc4c(cc3[C@H](O)[C@H]3COC(=O)[C@H]23)OCO4)cc(OC)c1OC [Podophyllotoxin, podophyllotoxin] | – | – | – | – | – | 0.05 µM |
